From paper PMC8247886, “Getting a Grip on the Undrugged: Targeting β‐Catenin with Fragment‐Based Methods” (Chemmedchem, 2021)

How the values were obtained:
[1] = target: T1, β-catenin141–305 (Homo sapiens, UniProt P35222); assay: 2D 15N NMR (TROSY/HSQC/HMQC) detected binding and Kd titration
T1 construct: Amino acids 141-305 of uniprot ID: P35222; GST (cleaved yes); made in house; host or cells: E. coli BL21 (DE3)
T1 sequence (P35222 141-305): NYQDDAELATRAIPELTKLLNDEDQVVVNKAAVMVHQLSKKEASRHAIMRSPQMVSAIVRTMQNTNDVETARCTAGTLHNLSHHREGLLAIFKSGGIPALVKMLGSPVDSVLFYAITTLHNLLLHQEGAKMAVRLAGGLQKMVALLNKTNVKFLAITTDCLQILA
Experimental: The construct for expression of β-catenin141-305 (Amino acids 141-305 of uniprot ID: P35222) is based on the previously reported R4 construct1. The plasmid was used to transform E. coli, strain BL21 (DE3) cells (Invitrogen). For protein expression, an overnight culture in LB-medium supplemented ampicillin (100 µg/mL) at 37 °C was prepared and diluted the next day with fresh 2xYT-medium. At OD600 of 0.8 the culture was cooled down to 18 °C and after induction with 0.5 mM IPTG incubated for 20 h. Cell pellets obtained by centrifugation at 5000 rpm were stored at - 20 °C. Cells were solubilized in buffer A (2X Dulbecco’s PBS; 500 mM NaCl; 10 % Glycerol; 0.5 mM TCEP; cOmplete™ Protease Inhibitor Cocktail; pH 7.4) and disrupted by sonication (Sonopuls, Bandelin) on ice. After 30 min the sonicated lysate was clarified by centrifugation (50 min, 13500 rpm, 4 °C). The supernatant was mixed with 20 mL Glutathione Sepharose® 4B resin (GE Healthcare) slurry, washed in lysis buffer, and steered for 3 hours on ice. The beads were spun down, loaded into a XK16 column cartridge and washed with lysis buffer until baseline. The protein was eluted with buffer B (2X Dulbecco’s PBS; 500 mM NaCl; 10 % Glycerol; 0.5 mM TCEP;; pH 7.4) + 25 mM L-Glutathione reduced. After cleavage with 2000 units Human Alpha Thrombin (Enzyme Research Laboratories) at room temperature overnight, the protein was collected in the flow-through fraction of a second GST run (GSTrap HP 5 mL column; GE Healthcare) using buffer B. The flow-through was concentrated by centrifugation using an Amicon© Ultra 15 mL Centrifugal Filter (Merck Millipore) and loaded onto a HiLoad Superdex S75 column (GE Healthcare) equilibrated with 50 mM Tris; 200 mM NaCl; 3 mM DTT; pH 8.
Fractions were analyzed by SDS-PAGE and fractions containing the desired protein were pooled and concentrated with an Amicon© Ultra 15 mL Centrifugal Filter (Merck Millipore). […]
For confirmation of hits obtained from STD-NMR by 2D 15N TROSY NMR4 a Bruker Avance III 600 MHz instrument with a 5 mm cryo-TCI probe and z-gradient was used. The experimental set up (automated sample preparation and transfer into the magnet by a Tecan Freedom Evo pipetting robot and a Bruker Sample Rail system, respectively) was identical. Each sample contained 25 uM 15N labeled β-catenin141-305 25 mM sodium phosphate, 150 mM sodium chloride, 100 mM sodium nitrate, 0.5mM TCEP pH 6.8 in H2O at 25 °C and 8% (v/v) D2O. The protein was incubated with 500 uM fragment in a 2.5 mm NMR tube at 25 °C and a d6DMSO concentration of 1%. Spectra were recorded with 48 transients and 64 data points in the indirect dimension. Manual comparison of the spectrum in the presence of the to be tested fragment with the DMSO reference spectrum reveal either line broadening or chemical shift perturbation of cross peaks. Both effects are indicative for compound binding. All processing and analysis was done with the Topspin 2.1 software (Bruker BioSpin). Further spectral comparisons were performed with the FELIX software package (Felix NMR Inc.) to combine manual with automated analysis5. […]
700MHz spectrometer equipped with a cryogenically cooled 5mm TCI probe. […]
The
WaterLOGSY pulse sequence was used as described before7. Selective water inversion was achieved with a double excitation sculpting element employing water selective Gaussian refocusing pulses (inversion bandwidth of 0.5 ppm, pulse length of 7.5 ms). The number of scans was set to 2048. Sample concentrations were 0.5 mM ligand and 0.25–10 µM β-catenin135-663 in […]

[2] = Solubility in NMR buffer at pH 7.5 by quantitative NMR (maleic acid external standard); assay type: physicochemical; conditions: NMR buffer (Tris/NaCl with 2% DMSO-d6), aqueous buffer, kinetic from dmso stock; NMR buffer pH 7.5; intended concentration 500 or 2000 μM; read-out: Solub. pH 7.5
Experimental: buffer (Tris 25 mM, pH 7.5, NaCl 150 mM) containing 2% DMSO-d6. […]
Solubility of compounds was determined in NMR buffer at pH 7.5 (see above) by integrating the
signal of 250 µM maleic acid as an external standard relative to the integrals of the ligands. If the
intended concentrations of 500 µM respective 2000 µM were reached the value is reported as >
500 µM or > 2000 µM. […]

[3] = target: T1, β-catenin141–305; assay: STD-NMR fragment screening in mixtures; assay type: binding; conditions: fragment mixture, 250 µM each, 10 µM protein
Excerpt: labelling the protein was expressed in Overnight Express™ Autoinduction NMR Medium - ¹⁵N - Novagen (Merck Millipore) according to the technical description and purified as described for the unlabeled protein. The protein of β-catenin135-663 (Amino acids 135-663 of uniprot ID: P35222) and the β-catenin binding domain of human BCL9 (Amino acids 347–392 of uniprot ID: O00512, containing an additional n-terminal glycine) was purchased (Proteros Biostructures GmbH).
Ligand based 1D 1H experiments were carried out on a Bruker Avance II 600 MHz spectrometer with a 5 mm cryo-QCI probe and z-gradients. […] The on and off resonance spectra were recorded in an interleaved fashion to minimize subtraction artifacts. […] After acquisition, the difference spectrum was calculated by subtracting the two individual spectra. […] These were readily assigned by comparing the signals with the respective pre-recorded reference spectra of the individual compounds present in the mixture. […]
For confirmation of hits obtained from STD-NMR by 2D 15N TROSY NMR4 a Bruker Avance III 600 MHz instrument with a 5 mm cryo-TCI probe and z-gradient was used. […] Spectra were recorded with 48 transients and 64 data points in the indirect dimension. […]
1D, GEM by STD and WaterLOGSY experiments were recorded at 298 K on an Avance III 700MHz spectrometer equipped with a cryogenically cooled 5mm TCI probe. […]

[4] = target: T1, β-catenin141–305; assay: Surface Plasmon Resonance (SPR) Kd determination; assay type: binding; conditions: positive control, n=3; 1:1 binding model
Experimental: Surface Plasmon Resonance (SPR)
A Biacore T200 instrument was used for SPR analysis, β-catenin141-305 was pre-diluted to a concentration of 0.1 mg/mL with 10 mM sodium acetate buffer, pH 5.0 and immobilized at a density of 6000 –7000 response units on flow cell 2 of a Biacore CM5 chip. Carbonic anhydraseII served as a reference protein on flow cell 3 and flow cell 1 was kept blank and used as the reference surface. A mixture of 20 mM Tris, pH 7.5, 150 mM NaCl, 0.5 mM TCEP, 0.005% Tween20, 2 % dimethyl sulfoxide was used as assay buffer. After pre -equilibration of the chip with 10 blank injections, the Kd measurements were performed by injecting a concentration series of analyte (9 concentrations, 1:1 dilutions). BCL9 347-392 served as a positive control. K d values were determined by global fitting of the steady-state response for each of the 9 concentrations to a 1:1 interaction model using the Biacore T200 evaluation software. Each compound was injected three times and […]
average Kd values were calculated from the repeats. The reported data are the mean values of three independent experiments ± standard deviations. […]
Glutamax Supplement (Thermo Fisher Scientific, 35050061) with 10% FCS (GE Healthcare, SH30071.03). Transfections were performed with Lipofectamine LTX Reagent (Thermo Fisher, 15338100) according the manufacturer’s instructions.

[5] = target: T1, β-catenin141–305; assay: Microscale Thermophoresis (MST) screening and Kd determination; assay type: binding; conditions: assay validation; PBS pH 6.8, 100 mM NaNO3, 0.5 mM TCEP, 0.05% Tween-20, 25 °C
Experimental: buffer (Tris 25 mM, pH 7.5, NaCl 150 mM) containing 2% DMSO-d6. A stock solution of β-catenin135-663 (12.5 µM) was dialyzed before into Tris 25 mM pH 7.6 NaCl 150 mM and centrifuged at 4° C at 15000 rpm for 20 minutes. Intensity ratios Ilogsy/I1D are derived from scaling of the 1D intensity to the corresponding LOGSY intensity. STD GEMs were acquired with 1.5 µM […]
2.0; and 3.0 seconds for the saturation time build up curves to determine the initial rate constants2.
STD experiments were acquired with on and off resonance saturation at +0.1ppm and -40ppm respectively with 1048 scans each.
Solubility of compounds was determined in NMR buffer at pH 7.5 (see above) by integrating the signal of 250 µM maleic acid as an external standard relative to the integrals of the ligands. If the intended concentrations of 500 µM respective 2000 µM were reached the value is reported as > 500 µM or > 2000 µM. Compound 3 only reached a concentration of 1000 µM according to the QNMR experiment even though 2000 µM was intended, it’s solubility is therefore reported as […]
Microscale Thermophoresis.
Fluorescence labeling of β-catenin141-305 with the NT647 dye was achieved using the Monolith NT.115 Protein Labeling Kit RED-NHS according to the manufacturer’s protocol (NanoTemper Technologies, Munich, Germany). The BCL9 peptide was used as positive control for assay development to achieve a reliably detectable change in the thermophoretic mobility ( ΔFnorm). […]
Final assay conditions were 50 nM NT647 labeled β-catenin141-305 in PBS pH 6.8 supplemented with 100 mM NaNO3, 0.5 mM TCEP and 0.05% Tween-20 at 25° C. Fragment screening detected […]
by MST was carried out as previously described8,9. […] Manual inspection of all MST traces was used to reject non-standard traces stemming from protein aggregation, bleaching, or fluorescence quenching. ΔFnorm values (ΔFnorm=Fhot/Fcold) were calculated and the mean values of the duplicates were compared to the mean values of the DMSO negative control. […] Protein integrity over the entire FBS was monitored by the BCL9 peptide positive control. […]

[6] = target: β-catenin; parameters: method as in PMID 17052462; conditions: previously determined binding affinity; read-out: ITC Kd; cited from earlier work

Row | Compound | chemical shift perturbations (CSPs) in 2D 15N NMR ([1]; 500 μM compound) | Kd ([1]; 15N NMR titration, single titration, mean of curves of selected cross peaks ± SD, read-out: HSQC Kd) [µM] | solubility [2] [µM] | STD-NMR binding [3] | Kd [4] [µM] | Kd [5] [µM] | Kd [6] [µM]
1 | O=C1NCCNc2c1cccc2[N+](=O)[O-] [Compound 1] | minor chemical shift perturbation | > 10000 | > 500 | unambiguously identified as binders | – | – | –
2 | BCL9^347−392: β-catenin binding domain of human BCL9 (amino acids 347–392, additional N-terminal glycine), positive control (NPDGLSQEQLEHRERSLQTLRDIQRMLFPDEKEFTGAQSGGPQQNP; additional N-terminal glycine; UniProt O00512 347-392, looked up, fragment) [reference compound] | – | – | – | – | 0.225 | 0.36 | 0.54
